Measurements: US20240246955A1, “TROPOMYOSIN RECEPTOR KINASE (TRK) DEGRADATION COMPOUNDS AND METHODS OF USE” (CULLGEN (SHANGHAI), INC., priority 2021, published 2024)

Columns and labels:
TPM3-TRKA fusion protein = molecular target: T1, TPM3-TRKA fusion protein (Homo sapiens, UniProt P04629); assay: TPM3-TRKA degradation in KM12 cells (Western blot); format: cell-based; conditions: 16 hours, TRK protein, immunoblot; for inhibition at 0.01 µM: 10 nM; for inhibition at 0.1 µM: 100 nM
T1 construct: TPM3 (N-terminal part of tropomyosin alpha-3, natural fusion partner); endogenous in cells; host or cells: KM12 colon cancer cells; the other entry of the earlier key: TPM3 (P06753, Tropomyosin alpha-3 chain)
T1 sequence (P04629 with tags, fused parts or gaps): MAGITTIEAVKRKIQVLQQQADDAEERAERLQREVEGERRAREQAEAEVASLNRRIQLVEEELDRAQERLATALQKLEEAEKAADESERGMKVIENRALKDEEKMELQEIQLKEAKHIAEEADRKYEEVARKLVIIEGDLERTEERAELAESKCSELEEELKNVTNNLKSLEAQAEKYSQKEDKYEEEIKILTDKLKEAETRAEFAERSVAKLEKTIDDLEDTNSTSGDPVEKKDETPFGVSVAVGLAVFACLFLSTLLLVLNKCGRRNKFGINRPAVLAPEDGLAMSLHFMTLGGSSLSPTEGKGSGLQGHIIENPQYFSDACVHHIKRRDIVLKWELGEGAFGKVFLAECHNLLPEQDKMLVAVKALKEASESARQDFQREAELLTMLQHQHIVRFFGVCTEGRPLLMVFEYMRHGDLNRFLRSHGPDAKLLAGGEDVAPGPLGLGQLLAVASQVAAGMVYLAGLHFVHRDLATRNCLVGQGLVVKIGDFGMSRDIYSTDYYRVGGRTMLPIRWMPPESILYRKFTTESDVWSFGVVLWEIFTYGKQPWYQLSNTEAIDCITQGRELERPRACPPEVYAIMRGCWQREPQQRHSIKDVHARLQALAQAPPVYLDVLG
Experimental: Specific exemplary heterobifunctional compounds were characterized in KM12 cells. KM12 cells that express TPM3-TRKA fusion protein were treated with 10 nM or 100 nM heterobifunctional compounds disclosed herein or their corresponding warheads/inhibitors for 16 hours. Cells were collected, lysed and subject to immunoblotting using an antibody specific to TRK proteins.
KM12 cells were treated with heterobifunctional compounds at 10 nM or 100 nM for 16 hours.
Cultured cells were washed with cold PBS once and lysed in cold RIPA buffer supplemented with protease inhibitors and phosphatase inhibitors (Beyotime Biotechnology). The solutions were then incubated at 4° C. for 30 minutes with gentle agitation to fully lyse cells. Cell lysates were centrifuged at 13,000 rpm for 10 minutes at 4° C. and pellets were discarded. Total protein concentrations in the lysates were determined by BCA assays (Beyotime Biotechnology). Cell lysates were mixed with Laemmli loading buffer to 1× and heated at 99° C. for 5 min. Proteins were resolved on SDS-PAGE and visualized by chemiluminescence. Images were taken by a ChemiDoc MP Imaging system (Bio-Rad). Protein bands were quantitated using the software provided by Bio-Rad.
The percentage of TRK protein degradation of each compound at 10 nM and 100 nM was determined in KM12 cells as described in Methods. The percentage of degradation of each compound was indicated in the following categories: N/A: data not available; −: no degradation; +: degradation less than 50%; ++: degradation equal or greater than 50% but less than […]; +++: degradation equal or greater than 80%.

KM12 cells = assay: KM12 cell viability assay (CellTiter-Glo); format: cell-based; conditions: for IC50: Homo sapiens, 72 h, KM12 cells, 3 days, CellTiter-Glo
Experimental: The kinase activity of TRK is known to play important roles in tumors expressing TRK-fusion proteins, as TRK kinase inhibitors compromise cell proliferation, survival, and induce marked clinical responses (Amatu et al., 2016; Drilon et al., 2018; Drilon et al., 2017; Khotskaya et al., 2017). KM12 cells seeded in 96-well plates were treated with heterobifunctional compounds following a 11-point 3-fold serial dilution. Three days after treatment, cell viability was determined using the CellTiter-Glo kit, and normalized to the mean values of 3 replicates of untreated cells. Dose-dependent response was analyzed following the least-squares non-linear regression method using the GraphPad Prism software. Each data point in the figure represents the mean values of three technical replicates ±standard deviation.
KM12 cells seeded in 96-well plates were treated with heterobifunctional compounds following a 11-point 3-fold serial dilution for 3 days.
KM12, TRKA G595R mutated KM12, HEL, and other cells were cultured at 37° C. with 5% CO2 in DMEM or RPMI 1640 Medium supplemented with 10% fetal bovine serum. Cells were authenticated using the short tandem repeat (STR) assays. Mycoplasma test results were negative.
Cells were seeded at a density of 5000 cells per well in 96-well assay plates and treated with test compounds following a 11-point 3-fold serial dilution. Three days later, cell viability was determined using the CellTiter-Glo assay kit (Promega) according to the manufacturer's instructions. The dose-response curves were determined and IC50 values were calculated using the GraphPad Prism software following a nonlinear regression (least squares fit) method.

SMILES | inhibition at 0.01 µM (TPM3-TRKA fusion protein) | inhibition at 0.1 µM (TPM3-TRKA fusion protein) | IC50 (KM12 cells) | viability of KM12 cells (KM12 cells; 11-point 3-fold serial dilution, 3 days (FIG. 3))
COCCN1C[C@@H](NC(=O)Nc2c(C)c(-c3cnc(N4CCN(C(=O)CCCCCCCNC(=O)C[C@H](NC(=O)[C@@H]5C[C@@H](O)CN5C(=O)[C@@H](NC(=O)C5(F)CC5)C(C)(C)C)c5ccc(-c6scnc6C)cc5)CC4)nc3)nn2-c2ccccc2)[C@H](c2cccc(F)c2)C1 [CPD-014, (2S,4R)-1-((S)-2-(1-fluorocyclopropane-1-carboxamido)-3,3-dimethylbutanoyl)-N-((S)-3-((8-(4-(5-(5-(3-((3S,4R)-4-(3-fluorophenyl)-1-(2-methoxyethyl)pyrrolidin-3-yl)ureido)-4-methyl-1-phenyl-1H-pyrazol-3-yl)pyrimidin-2-yl)piperazin-1-yl)-8-oxooctyl)amino)-1-(4-(4-methylthiazol-5-yl)phenyl)-3-oxopropyl)-4-hydroxypyrrolidine-2-carboxamide] | 50 to 800% | > 80% | 17.8 nM | –
COCCN1C[C@@H](NC(=O)Nc2c(C)c(-c3cnc(N4CCN(C(=O)CCCCCCCCCNC(=O)C[C@H](NC(=O)[C@@H]5C[C@@H](O)CN5C(=O)[C@@H](NC(=O)C5(F)CC5)C(C)(C)C)c5ccc(-c6scnc6C)cc5)CC4)nc3)nn2-c2ccccc2)[C@H](c2cccc(F)c2)C1 [CPD-015, (2S,4R)-1-((S)-2-(1-fluorocyclopropane-1-carboxamido)-3,3-dimethylbutanoyl)-N-((S)-3-((10-(4-(5-(5-(3-((3S,4R)-4-(3-fluorophenyl)-1-(2-methoxyethyl)pyrrolidin-3-yl)ureido)-4-methyl-1-phenyl-1H-pyrazol-3-yl)pyrimidin-2-yl)piperazin-1-yl)-10-oxodecyl)amino)-1-(4-(4-methylthiazol-5-yl)phenyl)-3-oxopropyl)-4-hydroxypyrrolidine-2-carboxamide] | 50 to 800% | 50 to 800% | 35.5 nM | –
COCCN1C[C@@H](NC(=O)Nc2c(C)c(-c3cnc(N4CCN(C(=O)CCOCCOCCNC(=O)C[C@H](NC(=O)[C@@H]5C[C@@H](O)CN5C(=O)[C@@H](NC(=O)C5(F)CC5)C(C)(C)C)c5ccc(-c6scnc6C)cc5)CC4)nc3)nn2-c2ccccc2)[C@H](c2cccc(F)c2)C1 [CPD-016, (2S,4R)-1-((S)-2-(1-fluorocyclopropane-1-carboxamido)-3,3-dimethylbutanoyl)-N-((S)-3-((2-(2-(3-(4-(5-(5-(3-((3S,4R)-4-(3-fluorophenyl)-1-(2-methoxyethyl)pyrrolidin-3-yl)ureido)-4-methyl-1-phenyl-1H-pyrazol-3-yl)pyrimidin-2-yl)piperazin-1-yl)-3-oxopropoxy)ethoxy)ethyl)amino)-1-(4-(4-methylthiazol-5-yl)phenyl)-3-oxopropyl)-4-hydroxypyrrolidine-2-carboxamide] | < 50% | 50 to 800% | 190 nM | –
COCCN1C[C@@H](NC(=O)Nc2c(C)c(-c3cnc(N4CCN(C(=O)CCOCCOCCOCCNC(=O)C[C@H](NC(=O)[C@@H]5C[C@@H](O)CN5C(=O)[C@@H](NC(=O)C5(F)CC5)C(C)(C)C)c5ccc(-c6scnc6C)cc5)CC4)nc3)nn2-c2ccccc2)[C@H](c2cccc(F)c2)C1 [CPD-017, (2S,4R)-1-((S)-2-(1-fluorocyclopropane-1-carboxamido)-3,3-dimethylbutanoyl)-N-((S)-16-(4-(5-(5-(3-((3S,4R)-4-(3-fluorophenyl)-1-(2-methoxyethyl)pyrrolidin-3-yl)ureido)-4-methyl-1-phenyl-1H-pyrazol-3-yl)pyrimidin-2-yl)piperazin-1-yl)-1-(4-(4-methylthiazol-5-yl)phenyl)-3,16-dioxo-7,10,13-trioxa-4-azahexadecyl)-4-hydroxypyrrolidine-2-carboxamide] | – | 50 to 800% | 445 nM | –
COCCN1C[C@@H](NC(=O)Nc2c(C)c(-c3cnc(N4CCN(C(=O)CCOCCOCCOCCOCCNC(=O)C[C@H](NC(=O)[C@@H]5C[C@@H](O)CN5C(=O)[C@@H](NC(=O)C5(F)CC5)C(C)(C)C)c5ccc(-c6scnc6C)cc5)CC4)nc3)nn2-c2ccccc2)[C@H](c2cccc(F)c2)C1 [CPD-018, (2S,4R)-1-((S)-2-(1-fluorocyclopropane-1-carboxamido)-3,3-dimethylbutanoyl)-N-((S)-19-(4-(5-(5-(3-((3S,4R)-4-(3-fluorophenyl)-1-(2-methoxyethyl)pyrrolidin-3-yl)ureido)-4-methyl-1-phenyl-1H-pyrazol-3-yl)pyrimidin-2-yl)piperazin-1-yl)-1-(4-(4-methylthiazol-5-yl)phenyl)-3,19-dioxo-7,10,13,16-tetraoxa-4-azanonadecyl)-4-hydroxypyrrolidine-2-carboxamide] | – | 50 to 800% | 852 nM | –

The next lines start with results.

inhibition at 0.01 µM (TPM3-TRKA fusion protein) | inhibition at 0.1 µM (TPM3-TRKA fusion protein) | SMILES | IC50 (KM12 cells) | viability of KM12 cells (KM12 cells; 11-point 3-fold serial dilution, 3 days (FIG. 3))
< 50% | 50 to 800% | COCCN1C[C@@H](NC(=O)Nc2c(C)c(-c3cnc(N4CCN(C(=O)CNC(=O)C[C@H](NC(=O)[C@@H]5C[C@@H](O)CN5C(=O)[C@@H](NC(=O)C5(F)CC5)C(C)(C)C)c5ccc(-c6scnc6C)cc5)CC4)nc3)nn2-c2ccccc2)[C@H](c2cccc(F)c2)C1 [CPD-011, (2S,4R)-1-((S)-2-(1-fluorocyclopropane-1-carboxamido)-3,3-dimethylbutanoyl)-N-((S)-3-((2-(4-(5-(5-(3-((3S,4R)-4-(3-fluorophenyl)-1-(2-methoxyethyl)pyrrolidin-3-yl)ureido)-4-methyl-1-phenyl-1H-pyrazol-3-yl)pyrimidin-2-yl)piperazin-1-yl)-2-oxoethyl)amino)-1-(4-(4-methylthiazol-5-yl)phenyl)-3-oxopropyl)-4-hydroxypyrrolidine-2-carboxamide] | 119 nM | –
< 50% | 50 to 800% | COCCN1C[C@@H](NC(=O)Nc2c(C)c(-c3cnc(N4CCN(C(=O)CCCCCNC(=O)C[C@H](NC(=O)[C@@H]5C[C@@H](O)CN5C(=O)[C@@H](NC(=O)C5(F)CC5)C(C)(C)C)c5ccc(-c6scnc6C)cc5)CC4)nc3)nn2-c2ccccc2)[C@H](c2cccc(F)c2)C1 [CPD-012, (2S,4R)-1-((S)-2-(1-fluorocyclopropane-1-carboxamido)-3,3-dimethylbutanoyl)-N-((S)-3-((6-(4-(5-(5-(3-((3S,4R)-4-(3-fluorophenyl)-1-(2-methoxyethyl)pyrrolidin-3-yl)ureido)-4-methyl-1-phenyl-1H-pyrazol-3-yl)pyrimidin-2-yl)piperazin-1-yl)-6-oxohexyl)amino)-1-(4-(4-methylthiazol-5-yl)phenyl)-3-oxopropyl)-4-hydroxypyrrolidine-2-carboxamide] | 132 nM | –
< 50% | 50 to 800% | COCCN1C[C@@H](NC(=O)Nc2c(C)c(-c3cnc(N4CCN(C(=O)CCCNC(=O)C[C@H](NC(=O)[C@@H]5C[C@@H](O)CN5C(=O)[C@@H](NC(=O)C5(F)CC5)C(C)(C)C)c5ccc(-c6scnc6C)cc5)CC4)nc3)nn2-c2ccccc2)[C@H](c2cccc(F)c2)C1 [CPD-013, (2S,4R)-1-((S)-2-(1-fluorocyclopropane-1-carboxamido)-3,3-dimethylbutanoyl)-N-((S)-3-((4-(4-(5-(5-(3-((3S,4R)-4-(3-fluorophenyl)-1-(2-methoxyethyl)pyrrolidin-3-yl)ureido)-4-methyl-1-phenyl-1H-pyrazol-3-yl)pyrimidin-2-yl)piperazin-1-yl)-4-oxobutyl)amino)-1-(4-(4-methylthiazol-5-yl)phenyl)-3-oxopropyl)-4-hydroxypyrrolidine-2-carboxamide] | 79.7 nM | –
> 80% | > 80% | COCCN1C[C@@H](NC(=O)Nc2c(C)c(-c3cnc(N4CCN(C(=O)CNc5ccc6c(c5)C(=O)N(C5CCC(=O)NC5=O)C6=O)CC4)nc3)nn2-c2ccccc2)[C@H](c2cccc(F)c2)C1 (stereo partly drawn) [CPD-019, 1-(3-(2-(4-((2-(2,6-dioxopiperidin-3-yl)-1,3-dioxoisoindolin-5-yl)glycyl)piperazin-1-yl)pyrimidin-5-yl)-4-methyl-1-phenyl-1H-pyrazol-5-yl)-3-((3S,4R)-4-(3-fluorophenyl)-1-(2-methoxyethyl)pyrrolidin-3-yl)urea] | 9.2 nM | inhibited the viability
